Assay results published in patent US20250313563A1, “GLYCOGEN SYNTHASE KINASE 3 INHIBITORS AND USES THEREOF” (The Broad Institute, Inc., priority 2022, published 2025).
Like-named read-outs stand apart in the source and are kept apart here.

What was measured:
[1] = biological target: GSK3α (GST-full length GSK3α) (Homo sapiens (Human), UniProt P49840); assay: GSK3α TR-FRET kinase assay; assay type: biochemical
Procedure, shortened: (§1)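 Readout: anti-pSer641 Tb antibody/streptavidin-d2 signal after 60 min, expressed as 665/615 ratio and fitted versus log concentration for IC50. Enzyme: 1 nM GST-GSK3 (α or β), compound-preincubated 30 min. Conditions: pH 7.5 Tris buffer with MgCl2, DTT, BSA; ATP at 4 or 2 μM, or 1 mM; 100 min.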

[2] = biological target: GSK3b (GST-full length GSK3b) (Homo sapiens (Human), UniProt P49841); assay: GSK3b TR-FRET kinase assay; assay type: biochemical
Chain of GSK3b (GST-full length GSK3b) (P49841 whole entry): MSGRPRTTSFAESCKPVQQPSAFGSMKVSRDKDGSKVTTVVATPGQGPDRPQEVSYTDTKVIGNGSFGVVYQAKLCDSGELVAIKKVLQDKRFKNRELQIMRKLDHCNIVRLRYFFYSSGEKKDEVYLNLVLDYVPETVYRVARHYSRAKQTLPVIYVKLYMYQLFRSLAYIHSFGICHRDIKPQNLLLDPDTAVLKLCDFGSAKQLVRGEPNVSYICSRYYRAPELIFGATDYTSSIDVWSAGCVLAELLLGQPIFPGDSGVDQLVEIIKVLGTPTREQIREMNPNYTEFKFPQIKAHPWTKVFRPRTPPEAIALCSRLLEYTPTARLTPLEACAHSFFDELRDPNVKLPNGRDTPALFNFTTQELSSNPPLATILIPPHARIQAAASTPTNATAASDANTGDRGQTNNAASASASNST
Procedure, shortened: as §1

[3] = 1 nM GSK3α, 4 μM ATP, 30 minute preincubation, Table 16, read-out: GSK3-A TR-FRET BIOCHEMICAL (TR-FRET), IC50
[4] = 1 nM GSK3b, 2 μM ATP, 30 minute preincubation, Table 16, read-out: GSK3-B TR-FRET BIOCHEMICAL (TR-FRET), IC50
[5] = 1 nM GSK3α, 4 μM ATP, 30 minute preincubation, Table 16, read-out: GSK3-A TR-FRET BIOCHEMICAL (TR-FRET)
[6] = 1 nM GSK3b, 2 μM ATP, 30 minute preincubation, Table 16, read-out: GSK3-B TR-FRET BIOCHEMICAL (TR-FRET)
[7] = 1 nM GSK3α, 4 μM ATP, 30 minute preincubation, read-out: GSK3-A TR-FRET BIOCHEMICAL (TR-FRET), IC50
[8] = 1 nM GSK3b, 2 μM ATP, 30 minute preincubation, read-out: GSK3-B TR-FRET BIOCHEMICAL (TR-FRET), IC50

Chain of GSK3α (GST-full length GSK3α) (P49840 whole entry): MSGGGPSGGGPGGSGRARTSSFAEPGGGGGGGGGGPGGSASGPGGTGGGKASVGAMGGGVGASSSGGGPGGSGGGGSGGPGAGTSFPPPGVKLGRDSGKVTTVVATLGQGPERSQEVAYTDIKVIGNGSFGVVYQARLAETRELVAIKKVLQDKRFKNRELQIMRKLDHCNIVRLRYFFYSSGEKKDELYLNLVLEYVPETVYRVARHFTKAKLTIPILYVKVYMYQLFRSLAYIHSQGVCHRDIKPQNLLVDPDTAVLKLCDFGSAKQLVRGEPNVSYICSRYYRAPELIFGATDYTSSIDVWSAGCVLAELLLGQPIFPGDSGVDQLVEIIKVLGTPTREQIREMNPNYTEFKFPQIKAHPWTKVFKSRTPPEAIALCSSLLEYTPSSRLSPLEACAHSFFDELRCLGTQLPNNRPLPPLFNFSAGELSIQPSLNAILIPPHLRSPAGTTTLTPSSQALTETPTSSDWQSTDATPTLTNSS

Row | IC50 [1, 3] | IC50 [2, 4] | SMILES | further results
1 | 1000 to 5000 nM | 1000 to 5000 nM | CC1(C)CC(=O)C2=C(C1)Nc1n[nH]cc1[C@]21CCOC(C)(C)C1 [Compound 924298] | 
2 | 100 to 1000 nM | 1000 to 5000 nM | CC[C@H]1C[C@]2(CCO1)C1=C(CC(C)(C)CC1=O)Nc1n[nH]cc12 [Compound 924311] | 

Continued, compound first:

Row | SMILES | IC50 [1, 3] | IC50 [2, 4] | further results
3 | CC[C@]1(c2cccc(N3CCC[C@H]3C)c2)C2=C(CC(C)(C)CC2=O)Nc2n[nH]cc21 [Compound 918322] | > 5000 nM | > 5000 nM | 
4 | CCC1(c2cccc(N3CC(C)C(C)C3)c2)C2=C(CC(C)(C)CC2=O)Nc2n[nH]cc21 (stereo not drawn) [Compound 918326] | 100 to 1000 nM | 100 to 1000 nM | 
5 | CCC1(c2cccc(N3CC(C)C(C)C3)c2)C2=C(CC(C)(C)CC2=O)Nc2n[nH]cc21 (stereo not drawn) [Compound 918327] | 1000 to 5000 nM | > 5000 nM | 
6 | CCN(c1cccc(C2(CC)C3=C(CC(C)(C)CC3=O)Nc3n[nH]cc32)c1)c1ncccn1 (stereo not drawn) [Compound 919840] | ≤ 100 nM | ≤ 100 nM | 
7 | CC1(C)CC(=O)C2=C(C1)Nc1n[nH]cc1[C@@]21CCOC(C)(C)C1 [Compound 924299] |  |  | IC50 [1, 5]: 100 to 1000 nM; IC50 [2, 6]: 100 to 1000 nM
8 | CC1(C)CC(=O)C2=C(C1)Nc1n[nH]cc1[C@@]21CCOC2(CCOCC2)C1 [Compound 924306] |  |  | IC50 [1, 7]: 100 to 1000 nM; IC50 [2, 8]: 100 to 1000 nM
9 | C[C@H]1C[C@]2(CCO1)C1=C(CC(C)(C)CC1=O)Nc1n[nH]cc12 [Compound 924307] |  |  | IC50 [1, 5]: 100 to 1000 nM; IC50 [2, 6]: 100 to 1000 nM
10 | C[C@@H]1C[C@@]2(CCO1)C1=C(CC(C)(C)CC1=O)Nc1n[nH]cc12 [Compound 924308] |  |  | IC50 [1, 5]: 100 to 1000 nM; IC50 [2, 6]: 100 to 1000 nM
11 | C[C@H]1COCC[C@@]12C1=C(CC(C)(C)CC1=O)Nc1n[nH]cc12 [Compound 924309] | 1000 to 5000 nM | > 5000 nM | 
12 | C[C@@H]1COCC[C@]12C1=C(CC(C)(C)CC1=O)Nc1n[nH]cc12 [Compound 924310] | > 5000 nM | > 5000 nM | 
13 | CCC1(c2cccc(N3CC(C)C(C)C3)c2)C2=C(CC(C)(C)CC2=O)Nc2n[nH]cc21 (stereo not drawn) [Compound 924504] | 100 to 1000 nM | 100 to 1000 nM | 
14 | CC[C@]1(c2cccc(N3C[C@H](C)[C@@H](C)C3)c2)C2=C(CC(C)(C)CC2=O)Nc2n[nH]cc21 [Compound 924520] | > 5000 nM | > 5000 nM | 
15 | CC[C@@H]1C[C@@]2(CCO1)C1=C(CC(C)(C)CC1=O)Nc1n[nH]cc12 [Compound 924715] |  |  | IC50 [1, 5]: ≤ 100 nM; IC50 [2, 6]: 100 to 1000 nM
16 | CCC1(c2cccc(N(C)c3nc(C)cc(C)n3)c2)C2=C(CC(C)(C)CC2=O)Nc2n[nH]cc21 (stereo not drawn) [Compound 926304] | 100 to 1000 nM | 1000 to 5000 nM | 
17 | CC1(C)CC(=O)C2=C(C1)Nc1n[nH]cc1C21COC2(CN(S(C)(=O)=O)C2)C1 (stereo not drawn) [Compound 926808] |  |  | IC50 [1, 7]: ≤ 100 nM; IC50 [2, 8]: ≤ 100 nM
18 | C[C@H]1C[C@@]2(CCN1S(=O)(=O)c1ccn(C)n1)C1=C(CC(C)(C)CC1=O)Nc1n[nH]cc12 [Compound 926815] |  |  | IC50 [1, 5]: ≤ 100 nM; IC50 [2, 6]: ≤ 100 nM
19 | CC1(C)CC(=O)C2=C(C1)Nc1n[nH]cc1[C@]21COC2(CN(S(C)(=O)=O)C2)C1 [Compound 926823] |  |  | IC50 [1, 7]: 100 to 1000 nM; IC50 [2, 8]: 1000 to 5000 nM
20 | C[C@H]1C[C@]2(CCN1S(C)(=O)=O)C1=C(CC(C)(C)CC1=O)Nc1n[nH]cc12 [Compound 926827] |  |  | IC50 [1, 5]: ≤ 100 nM; IC50 [2, 6]: ≤ 100 nM
21 | C[C@H]1C[C@]2(CCN1S(=O)(=O)c1ccn(C)n1)C1=C(CC(C)(C)CC1=O)Nc1n[nH]cc12 [Compound 926832] |  |  | IC50 [1, 5]: ≤ 100 nM; IC50 [2, 6]: 100 to 1000 nM
22 | CCC1(c2cccc(-c3cnn4c3CCCC4)c2)C2=C(CC(C)(C)CC2=O)Nc2n[nH]cc21 (stereo not drawn) [Compound 926836] | ≤ 100 nM | 100 to 1000 nM | 
23 | CCC1(c2cccc(-c3cn(C)nc3C)c2)C2=C(CC(C)(C)CC2=O)Nc2n[nH]cc21 (stereo not drawn) [Compound 926840] | ≤ 100 nM | ≤ 100 nM | 
24 | CCC1(c2cccc(-c3cnnc(C)c3)c2)C2=C(CC(C)(C)CC2=O)Nc2n[nH]cc21 (stereo not drawn) [Compound 926844] | ≤ 100 nM | 100 to 1000 nM | 
25 | CC(=O)N1CC2(C1)C[C@]1(CO2)C2=C(CC(C)(C)CC2=O)Nc2n[nH]cc21 [Compound 926861] |  |  | IC50 [1, 7]: ≤ 100 nM; IC50 ([1]; read-out: GSK3-A (TR-FRET 1 mM ATP), GMean, IC50, 1 mM ATP, geometric mean): ≤ 100 nM; IC50 [2, 8]: ≤ 100 nM; IC50 ([2]; read-out: GSK3-B (TR-FRET 1 mM ATP), GMean, IC50, 1 mM ATP, geometric mean): ≤ 100 nM
26 | CC(=O)N1CC2(C1)C[C@@]1(CO2)C2=C(CC(C)(C)CC2=O)Nc2n[nH]cc21 [Compound 926872] |  |  | IC50 [1, 7]: 100 to 1000 nM; IC50 [2, 8]: 100 to 1000 nM
